Measurements: US5716956A, “Dihydrophthalazine antagonists of excitatory amino acid receptors” (Bearsden Bearsden Bio, Inc., priority 1996, dated 1998)
Read-outs that look alike come from different tables or passages of the source.

How the values were obtained:
AMPA receptor = AMPA receptor inhibition, whole-cell patch clamp, KA-stimulated currents in primary cultures of rat neocortex; type: cell-based; conditions: rat cortical neurons; for AMPA % INHIBITION (10 μM drug): KA 50 μM; for IC50: 5 doses
Experimental: The potency of Examples 1-5, 7, 11, 17 and 31 listed in Table 1, for drug inhibition of the AMPA receptor was tested using the whole-cell patch clamp technique on primary cultures of rat neocortex. The general procedure for stimulating AMPA-receptor mediated currents with KA and for the measurement of current inhibition is based on that used by Donevan and Rogawski (Neuron, 10:51-59, 1993) for 2,3-benzodiazepines.
Standard extracellular bath solutions and intracellular pipette solutions are used as described in detail by Hussy and coworkers (J. Physiol. (Lond.), 481.2:311-323,1994). The drug application system is designed to allow rapid switching between 7 different reservoirs containing either control bath solution, kainic acid (50 μM), or kainic acid (50 μM) plus antagonist (10 μM). Each recording is begun with a control response to KA alone.
Following the establishment of a 2-3 sec duration steady baseline, bathing solution is switched to one containing KA plus antagonist for an additional 2-3 sec period. Alternatively, 5 different doses of a single compound are tested for the determination of the antagonist IC50. The results of the assay of Examples 1-5, 7, 11, 17 and 31 are listed below in Table 3, which illustrates AMPA receptor inhibition in rat cortical neurons. The compounds tested all were useful as antagonists of non-NMDA EAA receptors.

Male NIH Swiss mice = test: Maximum Electro Shock (MES) Seizure Test; type: in vivo; conditions: ip, 0.5 hours
Experimental: The extent of protection by a test compound in a seizure model is tested as described by Rogawski et al. (Epilepsy Research, 15:179-184, 1993). Male NIH Swiss mice (25-30 g) are injected ip with the test drug. The mice are subjected to a 0.2 sec, 60 Hz, 50 mA electrical stimulus delivered with corneal electrodes wetted with 0.9% saline at 15-30 min post dosing. Animals failing to show tonic hind limb extension are scored as protected. Compounds may be selected which are active in this model.

Mice = test: Subcutaneous Metrazol (scMET) Seizure Test; type: in vivo; conditions: 30 mg/kg, 0.5 hr, metrazol 90 mg/kg sc
Experimental: This test is to determine the extent of protection by a test compound in a seizure model. The method used is that of Chen et at. (Proc. Soc. Exp. Biol. Med., 87:334, 1954). Mice are randomly assigned to vehicle or treatment groups of 3-10 animals per group and then dosed accordingly. Metrazol (pentylenetetrazol) 90 mg/kg is administered subcutaneously (sc) at different time points (0.25, 0.5, 1, 2, 4 hr) after the treatment or control groups. The mice individually housed in clear runs and observed for the presence or absence of clonic seizure activity (>5 s duration) for 30 min after metrazol dosing. A compound is considered active if no seizure is observed. Data is analyzed using a quantal measure (protection/number tested).

cortical infarct volumes = conditions: cited from earlier work
global ischemia = conditions: rat common carotid arteries model; cited from earlier work

| Structure (SMILES) | AMPA % INHIBITION (10 μM drug) (AMPA receptor) [%] | IC50 (AMPA receptor) [µM] | other results |
| --- | --- | --- | --- |
| CNC(=O)N1N=C(c2ccc(N)cc2)c2cc3c(cc2C1C)OCO3 (stereo not drawn) [Example 1, 4-(4-Aminophenyl)-1,2-dihydro-1-methyl-2-(N"-methylcarbamoyl)-6,7-methylendioxyphthalazine] | 20 | 23 |  |
| CCNC(=O)N1N=C(c2ccc(N)cc2)c2cc3c(cc2C1C)OCO3 (stereo not drawn) [Example 2, 4-(4-Aminophenyl)-1,2-dihydro-2-(N-ethylcarbamoyl)-1-methyl-6,7-methylendioxyphthalazine] | 55 | 7.2 | MES Score (protected/no. tested) (Male NIH Swiss mice; 30 mg/kg): 3/3 |
| CCCNC(=O)N1N=C(c2ccc(N)cc2)c2cc3c(cc2C1C)OCO3 (stereo not drawn) [Example 3, 4-(4-Aminophenyl)-1,2-dihydro-1-methyl-2-propylcarbamoyl-6,7-methylendioxyphthalazine] | 80 | 2.8 | MES Score (protected/no. tested) (Male NIH Swiss mice; 31 mg/kg): 5/8 |
| CC(C)NC(=O)N1N=C(c2ccc(N)cc2)c2cc3c(cc2C1C)OCO3 (stereo not drawn) [Example 4, 4-(4-Aminophenyl)-1,2-dihydro-1-methyl-2-isopropylcarbamoyl-6,7-methylendioxyphthalazine] | 45 |  |  |
| CCCCNC(=O)N1N=C(c2ccc(N)cc2)c2cc3c(cc2C1C)OCO3 (stereo not drawn) [Example 5, 4-(4-Aminophenyl)-1,2-dihydro-1-methyl-2-n-butylcarbamoyl-6,7-methylenedioxyphthalazine] | 86 | 1.8 |  |
| CC1c2cc3c(cc2C(c2ccc(N)cc2)=NN1C(=O)NC(C)(C)C)OCO3 (stereo not drawn) [Example 7] | 70 | 5.4 |  |
| CCC1c2cc3c(cc2C(c2ccc(N)cc2)=NN1C(=O)NC)OCO3 (stereo not drawn) [Example 11, 4-(4-Aminophenyl)-1,2-dihydro-1-ethyl-2-methylcarbamoyl-6,7-methylendioxyphthalazine] | 36 |  |  |
| CC(=O)N1N=C(c2ccc(N)cc2)c2cc3c(cc2C1C)OCO3 (stereo not drawn) [Example 17] | 20 |  |  |
| CC1c2cc3c(cc2C(c2ccc(N)cc2)=NN1C(=O)N(C)C)OCO3 (stereo not drawn) [Example 31, 4-(4-Aminophenyl)-1,2-dihydro-2-(N,N-dimethylcarbamoyl)-1-methyl-6,7-methylendioxyphthalazine] | 33 |  |  |
| CCCNC(=O)N1N=C(c2ccc(N)cc2)c2cc(OC)c(OC)cc2C1C (stereo not drawn) [Example 133] |  |  | MES Score (protected/no. tested) (Male NIH Swiss mice; 30 mg/kg): 1/3; scMET Score (protect./no. tested) (Mice): 1/5 |
| CC1=NN=C(c2ccc(N)cc2)c2cc3c(cc2C1)OCO3 [GYKI 52466] |  |  | reduction of cortical infarct volumes (cortical infarct volumes; delayed for one hour): 48%; reduction of cortical infarct volumes (cortical infarct volumes; given continuously for 2 hours just after occlusion): 68%; effectiveness in global ischemia compared with NBQX (global ischemia): as effective as the glutamate site competitive antagonist NBQX |
